Data from ChEMBL document CHEMBL4411284, “Discovery of novel quaternary ammonium compounds based on quinuclidine-3-ol as new potential antimicrobial candidates” (Eur J Med Chem, 2019).
Active and inactive are the calls of the source. The rule behind the calls is not given here.

Experiments:
Staphylococcus aureus [1] = assay: Antimicrobial activity against Staphylococcus aureus ATCC 29213 after 24 to 48 hrs by broth microdilution assay; type: functional
Escherichia coli [2] = assay: Antimicrobial activity against Escherichia coli ATCC 25922 after 24 to 48 hrs by broth microdilution assay; type: functional
Staphylococcus aureus [3] = assay: Bactericidal activity against Staphylococcus aureus ATCC 29213 preincubated for 24 to 48 hrs followed by replating on MHA plates and measured after 18 hrs by broth microdilution assay; type: functional
Escherichia coli [4] = assay: Bactericidal activity against Escherichia coli ATCC 25922 preincubated for 24 to 48 hrs followed by replating on MHA plates and measured after 18 hrs by broth microdilution assay; type: functional
Staphylococcus aureus [5] = assay: Induction of morphological changes in Staphylococcus aureus ATCC 29213 assessed as cell wall damage at MIC after 1 hr by atomic force microscopic analysis; type: functional, organism-based
HEK293 = assay: Cytotoxicity against HEK293 cells assessed as reduction in cell viability after 48 hrs by MTS assay; type: cell-based; settings: Homo sapiens, HEK293, 48 h
HeLa = assay: Cytotoxicity against human HeLa cells assessed as reduction in cell viability after 48 hrs by MTS assay; type: cell-based
Staphylococcus aureus [6] = assay: Antimicrobial activity against methicillin-resistant Staphylococcus aureus clinical isolate after 24 to 48 hrs by broth microdilution assay; type: functional
Enterococcus faecalis [7] = assay: Antimicrobial activity against Enterococcus faecalis ATCC 29212 after 24 to 48 hrs by broth microdilution assay; type: functional
Streptococcus pyogenes [8] = assay: Antimicrobial activity against Streptococcus pyogenes ATCC 19615 after 24 to 48 hrs by broth microdilution assay; type: functional
Listeria monocytogenes [9] = assay: Antimicrobial activity against Listeria monocytogenes ATCC 19111 (1/2a) after 24 to 48 hrs by broth microdilution assay; type: functional
Escherichia coli [10] = assay: Antimicrobial activity against Escherichia coli clinical isolate after 24 to 48 hrs by broth microdilution assay; type: functional
Klebsiella pneumoniae [11] = assay: Antimicrobial activity against Klebsiella pneumoniae ATCC 13883 after 24 to 48 hrs by broth microdilution assay; type: functional
Klebsiella pneumoniae [12] = assay: Antimicrobial activity against Klebsiella pneumoniae clinical isolate after 24 to 48 hrs by broth microdilution assay; type: functional
Salmonella typhimurium [13] = assay: Antimicrobial activity against Salmonella typhimurium WDCM 00031 after 24 to 48 hrs by broth microdilution assay; type: functional, Salmonella enterica subsp. enterica serovar Typhimurium; settings: Salmonella enterica
Pseudomonas aeruginosa [14] = assay: Antimicrobial activity against Pseudomonas aeruginosa ATCC 27853 after 24 to 48 hrs by broth microdilution assay; type: functional
Acinetobacter baumannii [15] = assay: Antimicrobial activity against Acinetobacter baumannii ATCC 19606 after 24 to 48 hrs by broth microdilution assay; type: functional; settings: ATCC 19606 = CIP 70.34 = JCM 6841
Acinetobacter baumannii [16] = assay: Antimicrobial activity against Acinetobacter baumannii clinical isolate after 24 to 48 hrs by broth microdilution assay; type: functional
Candida albicans = assay: Antifungal activity against Candida albicans ATCC 90029 after 24 to 48 hrs by broth microdilution assay; type: functional
Aspergillus niger = assay: Antifungal activity against Aspergillus niger after 24 to 48 hrs by broth microdilution assay; type: functional
Penicillium citrinum = assay: Antifungal activity against Penicillium citrinum after 24 to 48 hrs by broth microdilution assay; type: functional
Staphylococcus aureus [17] = assay: Bactericidal activity against methicillin-resistant Staphylococcus aureus clinical isolate preincubated for 24 to 48 hrs followed by replating on MHA plates and measured after 18 hrs by broth microdilution assay; type: functional
Enterococcus faecalis [18] = assay: Bactericidal activity against Enterococcus faecalis ATCC 29212 preincubated for 24 to 48 hrs followed by replating on MHA plates and measured after 18 hrs by broth microdilution assay; type: functional
Streptococcus pyogenes [19] = assay: Bactericidal activity against Streptococcus pyogenes ATCC 19615 preincubated for 24 to 48 hrs followed by replating on MHA plates and measured after 18 hrs by broth microdilution assay; type: functional
Listeria monocytogenes [20] = assay: Bactericidal activity against Listeria monocytogenes ATCC 19111 (1/2a) preincubated for 24 to 48 hrs followed by replating on MHA plates and measured after 18 hrs by broth microdilution assay; type: functional
Escherichia coli [21] = assay: Bactericidal activity against Escherichia coli clinical isolate preincubated for 24 to 48 hrs followed by replating on MHA plates and measured after 18 hrs by broth microdilution assay; type: functional
Klebsiella pneumoniae [22] = assay: Bactericidal activity against Klebsiella pneumoniae ATCC 13883 preincubated for 24 to 48 hrs followed by replating on MHA plates and measured after 18 hrs by broth microdilution assay; type: functional
Klebsiella pneumoniae [23] = assay: Bactericidal activity against Klebsiella pneumoniae clinical isolate preincubated for 24 to 48 hrs followed by replating on MHA plates and measured after 18 hrs by broth microdilution assay; type: functional
Salmonella typhimurium [24] = assay: Bactericidal activity against Salmonella typhimurium WDCM 00031 preincubated for 24 to 48 hrs followed by replating on MHA plates and measured after 18 hrs by broth microdilution assay; type: functional, Salmonella enterica subsp. enterica serovar Typhimurium; settings: Salmonella enterica
Pseudomonas aeruginosa [25] = assay: Bactericidal activity against Pseudomonas aeruginosa ATCC 27853 preincubated for 24 to 48 hrs followed by replating on MHA plates and measured after 18 hrs by broth microdilution assay; type: functional
Acinetobacter baumannii [26] = assay: Bactericidal activity against Acinetobacter baumannii ATCC 19606 preincubated for 24 to 48 hrs followed by replating on MHA plates and measured after 18 hrs by broth microdilution assay; type: functional; settings: ATCC 19606 = CIP 70.34 = JCM 6841
Acinetobacter baumannii [27] = assay: Bactericidal activity against Acinetobacter baumannii clinical isolate preincubated for 24 to 48 hrs followed by replating on MHA plates and measured after 18 hrs by broth microdilution assay; type: functional
TERT-RPE1 = assay: Cytotoxicity against human RPE1 cells assessed as reduction in cell viability after 48 hrs by MTS assay; type: cell-based; settings: RPE-1, 48 h

`CCCCCCCCCCCC[N+](C)(C)Cc1ccccc1.[Br-]` gave an MIC (Staphylococcus aureus [1]) of 1.5 µg/mL, an MIC (Escherichia coli [2]) of 3.9 µg/mL and an MBC (Staphylococcus aureus [3]) of 1.5 µg/mL. The MBC (Escherichia coli [4]) was 3.9 µg/mL, the Activity (Staphylococcus aureus [5]) was “Active” and the IC50 (HEK293) was 1 µg/mL. It also gave an IC50 (HeLa) of 3.98 µg/mL.

`CCCCCCCCCCCC[N+]12CCC(CC1)C(O)C2.[Br-]` (stereo unspecified) showed an MIC (Staphylococcus aureus [1]) of 15.6 µg/mL, an MIC (Staphylococcus aureus [6]) of 62.5 µg/mL and an MIC (Enterococcus faecalis [7]) of 15.6 µg/mL. For the same compound, the MIC (Streptococcus pyogenes [8]) was 0.48 µg/mL, the MIC (Listeria monocytogenes [9]) was 31.2 µg/mL and the MIC (Escherichia coli [2]) was 62.5 µg/mL. It also gave an MIC (Escherichia coli [10]) of 62.5 µg/mL, an MIC (Klebsiella pneumoniae [11]) of 125 µg/mL and an MIC (Klebsiella pneumoniae [12]) of 250 µg/mL. It also gave an MIC (Salmonella typhimurium [13]) of 250 µg/mL, an MIC (Pseudomonas aeruginosa [14]) of 250 µg/mL and an MIC (Acinetobacter baumannii [15]) of 125 µg/mL. It also gave an MIC (Acinetobacter baumannii [16]) of 62.5 µg/mL, an MIC50 (Candida albicans) of 1.95 µg/mL and an MIC90 (Candida albicans) of 3.9 µg/mL. It also gave an MIC50 (Aspergillus niger) of 7.8 µg/mL, an MIC90 (Aspergillus niger) of 15.6 µg/mL and an MIC50 (Penicillium citrinum) of 31.2 µg/mL. It also gave an MIC90 (Penicillium citrinum) of 62.5 µg/mL, an MBC (Staphylococcus aureus [3]) of 15.6 µg/mL and an MBC (Staphylococcus aureus [17]) of 62.5 µg/mL. For the same compound, the MBC (Enterococcus faecalis [18]) was 15.6 µg/mL, the MBC (Streptococcus pyogenes [19]) was 0.48 µg/mL and the MBC (Listeria monocytogenes [20]) was 31.2 µg/mL. It also gave an MBC (Escherichia coli [4]) of 62.5 µg/mL, an MBC (Escherichia coli [21]) of 62.5 µg/mL and an MBC (Klebsiella pneumoniae [22]) of 125 µg/mL. The MBC (Klebsiella pneumoniae [23]) was 250 µg/mL, the MBC (Salmonella typhimurium [24]) was 250 µg/mL and the MBC (Pseudomonas aeruginosa [25]) was 500 µg/mL. For the same compound, the MBC (Acinetobacter baumannii [26]) was 250 µg/mL, the MBC (Acinetobacter baumannii [27]) was 125 µg/mL and the IC50 (HEK293) was 1 µg/mL. It also gave an IC50 (TERT-RPE1) of 8 µg/mL.
